Laboratory results taken from publication PMC9456463, “Intelligent Drug Delivery by Peptide-Based Dual-Function Micelles” (International Journal of Molecular Sciences, 2022).

System: 4T1 mouse breast cancer cell xenografted model
Experiment: In vivo antitumor efficacy, 4T1 mouse breast cancer xenografted model
Conditions: BALB/c female mice, 4T1 tumor
Protocol: All animal experiments were performed complying with the guidelines for the care and use of laboratory animals of the Peking University Animal Study Committee’s requirements. Experimental procedures were carried out by a protocol approved for institutional animal care. A total of 24 BALB/c female mice (5–6 weeks) were used in this study. The PBS suspension containing 2.5 × 10^4 4T1 cells was injected subcutaneously into female BALB/c mice. […] The body weight and tumor volume of each mouse were measured at regular intervals to evaluate the antitumor effects and toxicity of different drugs. […] One mouse from each group was randomly selected, and its major organs and tumor tissues were collected, then Hematoxylin and Eosin (H&E) staining were utilized to evaluate the degree of apoptosis in mice.

COc1cccc2c1C(=O)c1c(O)c3c(c(O)c1C2=O)C[C@@](O)(C(=O)CO)C[C@@H]3O[C@H]1C[C@H](N)[C@H](O)[C@H](C)O1 [DOX, Doxorubicin]
body weight change during treatment (tail vein injection): decreased significantly | final tumor weight (tail vein injection on days 0, 4, 8, 12): 0.47 g | tumor volume increase after 14 days (tail vein injection on days 0, 4, 8, 12, group sacrificed on the 14th day): 11.03 fold | final tumor weight (tail vein injection on days 0, 4, 8, 12, listed as free DOX): 0.67 g
